Assay results published in patent US20260240878A1, “PTP1B/TC-PTP DUAL INHIBITORS AND PROTEIN DEGRADERS” (Purdue Research Foundation, priority 2023, published 2026).
*1 amine or outer side, *2 acyl side, *3 side chain or, on linkers, in order; H or OH if unused. Where a SMILES comes first, the peptide text is derived from it. [ ]: non-standard residue; d: D form. The star is where a group is joined. NHCH2(1,3-C6H4)CH2CO = O=C(Cc1cccc(CN[*:1])c1)[*:2]; F2Pmp = N[C@@H](Cc1ccc(C(F)(F)P(=O)(O)O)cc1)C(=O)O; Phenylacetyl(4-OH,3-OMe) = COc1cc(CC(=O)*)ccc1O; Benzoyl(3-Br,4-Me) = Cc1ccc(C(=O)*)cc1Br; X1 = Cc1ncsc1-c1ccc([C@H](C)N*)cc1; Hyp = O=C(O)[C@@H]1C[C@@H](O)CN1; Tle = CC(C)(C)[C@H](N)C(=O)O

How the values were obtained:
HEK293 cells = assay: Proteomic analysis for degradation selectivity in HEK293 cells; type: cell-based; conditions: 100 nM, 4 hours
Experimental: The proteome-wide degradation selectivity of compound 47 was assessed by performing quantitative mass spectrometry-based proteomic experiments to determine the range of targets degraded by compound 47 in HEK293 cells.

PTP1B and TC-PTP [1] = assay: Western blot quantification of PTP1B/TC-PTP and pSTAT1 in multiple cell lines; type: cell-based
Experimental: The GAPDH protein was used as the loading control. Compound 47 induces PTP1B and TC-PTP degradation in all tested cell lines with low nanomolar DC50s.
The GAPDH protein was used as the loading control. […] The changes in pSTAT1 level were positively correlated with TC-PTP/PTP1B degradation among all cell lines.
Tissues or cultured cells were lysed with ice-cold lysis buffer (50 mM Tris (pH 8.0, 150 mM NaCl, 10% Glycerol, 1% Triton-X-100) supplied with phosphatase inhibitor (Bimake) and protease inhibitor mixture (Roche Applied Science). Equal amounts of protein were resolved by SDS-PAGE, transferred to nitrocellulose membrane, and subjected to immunoblotting. Antibodies used in this study include anti-following proteins: pSTAT1^Tyr701 (Cell Signaling Technology #9167, 1:3000), GAPDH (Cell Signaling Technology #97166, 1:5000), pJAK1^Tyr1034/1035 (Cell Signaling Technology #74129, 1:1000), pJAK2^Tyr1007/1008 (Cell Signaling Technology #3776, 1:1000), TC-PTP (Abcam #ab180764, 1:3000). PTP1B (Abcam #ab244207, 1:1500).

[2] = Blood glucose levels study in mice; type: in vivo, mouse
Experimental: Blood glucose levels were measured 24 or 48 hours after injection. No starvation applied. NFD=normal fat diet fed mice. […] Mice were treated with 25 or 50 mg/kg of compound 47 daily through i.p. injection. Blood glucose levels were measured several times before injection during the experiment.
PTP1B and TC-PTP are known to function in concert in regulating both insulin and leptin-mediated cellular processes. The inhibition of PTP1B and TC-PTP was reported to improve insulin sensitivity and glucose homeostasis in diet-induced obese mice. The effect of compound 47 on the glucose levels in mice was evaluated.

pSTAT1 = assay: STAT1 phosphorylation in IFN-γ stimulated HEK293 cells (western blot); type: cell-based; conditions: Homo sapiens, HEK293, 16 h, read-out: EC50 of pSTAT1 activation
Experimental: Wild-type HEK293 cells were treated with compound 47 or ABBV-CLS-484 for 16 hours, and stimulated with 20 ng/ml IFN-γ to induce JAK-STAT signaling pathway activation.
Abbvie and Calico developed a potent PTP1B/TC-PTP inhibitor ABBV-CLS-484 (disclosed in International PCT application WO2019246513), and it is currently being evaluated as a treatment for locally advanced or metastatic tumors (NCT04777994).

PTP1B and TC-PTP [3] = assay: Immunofluorescence of PTP1B and TC-PTP in U2OS cells; type: cell-based; conditions: 1 μM, 3 hours and 24 hours
Experimental: MG132 (20 μM) was used along with compound 47 to block PTP1B and TC-PTP degradation.

PTP1B = biological target: T1, PTP1B (Homo sapiens, UniProt P18031); assay: Degradation assay in HEK293 cells (immunoblotting); type: cell-based; design: endogenous in cells; host or cells: HEK293; conditions: 0.2 μM degrader, 16 hours
T1 sequence (P18031 1-435): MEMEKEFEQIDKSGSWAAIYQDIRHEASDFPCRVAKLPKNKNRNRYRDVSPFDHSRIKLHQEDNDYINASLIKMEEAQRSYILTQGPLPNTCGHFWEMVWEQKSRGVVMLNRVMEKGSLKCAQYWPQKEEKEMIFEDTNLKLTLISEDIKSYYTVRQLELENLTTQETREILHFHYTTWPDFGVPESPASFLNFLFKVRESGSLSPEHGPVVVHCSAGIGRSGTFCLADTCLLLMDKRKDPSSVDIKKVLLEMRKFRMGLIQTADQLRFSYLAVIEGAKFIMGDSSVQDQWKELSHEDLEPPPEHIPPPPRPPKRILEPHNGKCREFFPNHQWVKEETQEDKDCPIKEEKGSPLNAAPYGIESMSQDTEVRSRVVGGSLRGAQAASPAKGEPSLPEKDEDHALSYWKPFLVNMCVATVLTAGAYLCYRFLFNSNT

TC-PTP = biological target: T2, TC-PTP (Homo sapiens, UniProt P17706); assay: Degradation assay in HEK293 cells (immunoblotting); type: cell-based; design: endogenous in cells; host or cells: HEK293; conditions: 0.2 μM degrader, 16 hours, read-out: % Protein Degradation TC-PTP
T2 sequence (P17706 1-415): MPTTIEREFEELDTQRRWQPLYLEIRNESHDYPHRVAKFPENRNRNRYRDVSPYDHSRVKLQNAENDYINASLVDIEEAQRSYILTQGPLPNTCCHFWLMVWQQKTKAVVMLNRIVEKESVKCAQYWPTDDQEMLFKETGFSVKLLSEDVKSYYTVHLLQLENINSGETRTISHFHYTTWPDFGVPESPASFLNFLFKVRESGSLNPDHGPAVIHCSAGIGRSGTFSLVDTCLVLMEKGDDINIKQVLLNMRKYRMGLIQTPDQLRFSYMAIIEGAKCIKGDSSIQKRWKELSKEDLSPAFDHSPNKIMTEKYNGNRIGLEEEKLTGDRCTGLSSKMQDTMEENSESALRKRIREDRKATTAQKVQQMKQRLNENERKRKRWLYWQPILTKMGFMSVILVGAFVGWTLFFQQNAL

## COc1cc(CC(=O)N[C@@H](Cc2ccccc2)C(=O)N[C@@H](Cc2ccc(C(F)(F)P(=O)(O)O)cc2)C(=O)N[C@@H](CCCCNC(=O)c2ccc(C)c(Br)c2)C(=O)NCc2cccc(CC(=O)N[C@H](C(=O)N3C[C@H](O)C[C@H]3C(=O)N[C@@H](C)c3ccc(-c4scnc4C)cc3)C(C)(C)C)c2)ccc1O [Compound 47, ((4-((S)-3-(((S)-6-(3-bromo-4-methylbenzamido)-1-((3-(2-(((S)-1-((2S,4R)-4-hydroxy-2-(((S)-1-(4-(4-methylthiazol-5-yl)phenyl)ethyl)carbamoyl)pyrrolidin-1-yl)-3,3-dimethyl-1-oxobutan-2-yl)amino)-2-oxoethyl)benzyl)amino)-1-oxohexan-2-yl)amino)-2-((S)-2-(2-(4-hydroxy-3-methoxyphenyl)acetamido)-3-phenylpropanamido)-3-oxopropyl)phenyl)difluoromethyl)phosphonic Acid] ({Phenylacetyl(4-OH,3-OMe)}-F[F2Pmp]K(Benzoyl(3-Br,4-Me))[NHCH2(1,3-C6H4)CH2CO][Tle][Hyp]-X1)
HEK293 cells
  proteome-wide degradation selectivity: PTP1B was the only protein whose levels were significantly reduced
PTP1B and TC-PTP [1]; all tested cell lines, 16 hours
  DC50 of PTP1B and TC-PTP degradation: low nanomolar
PTP1B and TC-PTP [1]; multiple cell lines, 10 ng/ml IFN-γ 15 mins
  pSTAT1 level: enhances pSTAT1 level in all cell lines
[2]; MC38 tumor mouse model, 25 mg/kg daily i.p.
  blood glucose level: did not lead to significant reduction in the level of blood glucose
[2]; MC38 tumor mouse model, 50 mg/kg daily i.p.
  blood glucose level: slightly reduced blood glucose level
[2]; high-fat diet (HFD) mice, 15 mg/kg
  blood glucose level: sufficient to reduce blood glucose level in high-fat diet (HFD) mice to that of normal fat diet fed (NFD) mice
[2]; high-fat diet (HFD) mice, 50 mg/kg
  blood glucose level: further reduced glucose levels
pSTAT1
  EC50: 9.1 nM
PTP1B and TC-PTP [3]
  PTP1B and TC-PTP degradation by immunofluorescence: degraded cytoplasm-localized PTP1B and both nucleus- and cytoplasm-localized TC-PTP
PTP1B
  % Protein Degradation PTP1B: 95%
TC-PTP
  percent TC-PTP degradation at 0.2 µM: 92%
